Legend:
Recombinant human HSP90α = target: T1, Recombinant human HSP90α (Homo sapiens, UniProt P07900); experiment: HSP90 radioligand filter binding test ([3H]17AAG competition)
T1 construct: host or cells: E. coli
Source text: The binding of geldanamycin or 17-allylamino-17-demethoxygeldanamycin (17AAG) to HSP90 and competitive inhibition thereof can be utilised in order to determine the inhibitory activity of the compounds according to the invention (Carreras et al. 2003, Chiosis et al. 2002).
In the specific case, a radioligand filter binding test is used. The radioligand used here is tritium-labelled 17-allylaminogeldanamycin, [3H]17AAG. This filter binding test allows a targeted search for inhibitors which interfere with the ATP binding site.
Recombinant human HSP90α (E. coli expressed, 95% purity); [3H]17AAG (17-allylaminogeldanamycin, [allylamino-2,3-^3H. Specific activity: 1.11×10^12 Bq/mmol (Moravek, MT-1717);
HEPES filter buffer (50 mM HEPES, pH 7.0, 5 mM MgCl2, BSA 0.01%) Multiscreen FB (1 μm) filter plate (Millipore, MAFBNOB 50).
The 96-well microtitre filter plates are firstly irrigated and coated with 0.1% of polyethylenimine.
At the end of the reaction, the supernatant in the filter plate is removed by suction with the aid of a vacuum manifold (Multiscreen Separation System, Millipore), and the filter is washed twice.
The filter plates are then measured in a beta counter (Microbeta, Wallac) with scintillator (Microscint 20, Packard).
“% of control” is determined from the “counts per minutes” values and the IC50 value of a compound is calculated therefrom.

[1] = Relative stability of polymorphic forms of C1; assay type: physicochemical; conditions: form A1 versus form A2 of C1
Source text: Two polymorphic forms A1 and A2 of the compound “C1” according to the invention can be isolated.
Form A2 can be converted into A1, for example by stirring in solvents such as methanol, ethanol, acetone, DMF, acetic acid, formic acid, THF or isopropanol.

SMILES | higher activity in HSP90 inhibition compared with "A47" (Recombinant human HSP90α; C1 versus A47 from the closest prior art) | IC50 (Recombinant human HSP90α; [3H]17AAG 0.08 μM, 22° C., 30 min, read-out: HSP90 inhibition IC50) [nM] | thermodynamic stability of polymorphic form [1]
CCCCN(C)C(=O)c1cc(-c2n[nH]c(=O)n2-c2ccccc2C)c(O)cc1O [Compound C1, 5-[4-(2-methylphenyl)-3-hydroxy-4H-1,2,4-triazol-5-yl]-2,4-dihydroxy-N-methyl-N-butylbenzamide] | approximately 10 times | 29 | 
CCCCN(C)C(=O)c1cc(-c2nnc(O)n2-c2ccccc2C)c(O)cc1O [Form A1, 5-[4-(2-methylphenyl)-3-hydroxy-4H-1,2,4-triazol-5-yl]-2,4-dihydroxy-N-methyl-N-butylbenzamide] |  |  | thermodynamically more stable form

— patent US8816070B2, “Triazole derivative as an HSP 90 inhibitor” (Merck Patent GmbH, priority 2007, dated 2014)
